Among the data in publication PMC6576746, “Rational discovery of dual-indication multi-target PDE/Kinase inhibitor for precision anti-cancer therapy using structural systems pharmacology” (PLoS Computational Biology, 2019) are remaining binding values, retold here.

Each structure is given as a SMILES string.

Holding throughout (assay): biochemical
Common to all, as to set-up: DiscoverX KinomeScan competition binding assay across human kinases; per cent of control at 10 and 100 uM

In one experiment the target is T1, MRCKA (Homo sapiens, UniProt Q5VT25).
T1 construct: gene CDC42BPA
To be noted: competition binding, % of control; read-out: Percent Control (100 uM Levosimendan). A digest of the protocol: (§1)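 KinomeScan competition binding was run across a human kinase panel at 10 μM and 100 μM levosimendan. Results are %control = (test − positive control)/(negative control − positive control) × 100.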

A further experiment has as its target T2, MEK3 (Homo sapiens, UniProt P46734).
T2 construct: gene MAP2K3
Particulars: competition binding, % of control; read-out: Percent Control (100 uM Levosimendan). A digest of the protocol: as §1

Experiment [1] addresses T3, RPS6KA4(Kin.Dom.1-N-terminal) (Homo sapiens, UniProt O75676).
T3 construct: Kin.Dom.1-N-terminal
To be noted: competition binding, % of control; read-out: Percent Control (100 uM Levosimendan). A digest of the protocol: as §1

The target of the next experiment is MAPKAPK2 (Homo sapiens, UniProt P49137). To be noted: competition binding, % of control; read-out: Percent Control (100 uM Levosimendan). A digest of the protocol: as §1
The next experiment addresses RIOK1 (Homo sapiens, UniProt Q9BRS2). Particulars: competition binding, % of control. A digest of the protocol:
as §1

A further experiment addresses T4, OSR1 (Homo sapiens, UniProt O95747).
T4 construct: gene OXSR1
Particulars: competition binding, % of control; read-out: Percent Control (100 uM Levosimendan). A digest of the protocol: as §1

Another experiment concerns the target PKMYT1 (Homo sapiens, UniProt Q99640). To be noted: competition binding, % of control; read-out: Percent Control (100 uM Levosimendan). A digest of the protocol: as §1
The target in the next experiment is EGFR(L747-T751del,Sins) (Homo sapiens, UniProt P00533, DEL747-750/T751S). Particulars: competition binding, % of control; read-out: Percent Control (100 uM Levosimendan). A digest of the protocol: as §1
The next experiment deals with T5, FAK (Homo sapiens, UniProt Q05397).
T5 construct: gene PTK2
Particulars: competition binding, % of control; read-out: Percent Control (100 uM Levosimendan). A digest of the protocol:
as §1

A further experiment concerns the target PIM2 (Homo sapiens, UniProt Q9P1W9). Particulars: competition binding, % of control. A digest of the protocol: as §1
In a further experiment the target is TAOK2 (Homo sapiens, UniProt Q9UL54). To be noted: competition binding, % of control; read-out: Percent Control (100 uM Levosimendan). A digest of the protocol:
as §1

A further experiment deals with MST1R (Homo sapiens, UniProt Q04912). To be noted: competition binding, % of control; read-out: Percent Control (100 uM Levosimendan). A digest of the protocol:
as §1

The target in the next experiment is DAPK1 (Homo sapiens, UniProt P53355). To be noted: competition binding, % of control; read-out: Percent Control (100 uM Levosimendan). A digest of the protocol:
as §1

The target of the next experiment is FGFR3(G697C) (Homo sapiens, UniProt P22607, G697C). Particulars: competition binding, % of control; read-out: Percent Control (100 uM Levosimendan). A digest of the protocol:
as §1

A further experiment addresses IRAK1 (Homo sapiens, UniProt P51617). Particulars: competition binding, % of control; read-out: Percent Control (100 uM Levosimendan). A digest of the protocol: as §1
A further experiment deals with IGF1R (Homo sapiens, UniProt P08069). Particulars: competition binding, % of control; read-out: Percent Control (100 uM Levosimendan). A digest of the protocol: as §1
Sequence of IGF1R (P08069 whole entry): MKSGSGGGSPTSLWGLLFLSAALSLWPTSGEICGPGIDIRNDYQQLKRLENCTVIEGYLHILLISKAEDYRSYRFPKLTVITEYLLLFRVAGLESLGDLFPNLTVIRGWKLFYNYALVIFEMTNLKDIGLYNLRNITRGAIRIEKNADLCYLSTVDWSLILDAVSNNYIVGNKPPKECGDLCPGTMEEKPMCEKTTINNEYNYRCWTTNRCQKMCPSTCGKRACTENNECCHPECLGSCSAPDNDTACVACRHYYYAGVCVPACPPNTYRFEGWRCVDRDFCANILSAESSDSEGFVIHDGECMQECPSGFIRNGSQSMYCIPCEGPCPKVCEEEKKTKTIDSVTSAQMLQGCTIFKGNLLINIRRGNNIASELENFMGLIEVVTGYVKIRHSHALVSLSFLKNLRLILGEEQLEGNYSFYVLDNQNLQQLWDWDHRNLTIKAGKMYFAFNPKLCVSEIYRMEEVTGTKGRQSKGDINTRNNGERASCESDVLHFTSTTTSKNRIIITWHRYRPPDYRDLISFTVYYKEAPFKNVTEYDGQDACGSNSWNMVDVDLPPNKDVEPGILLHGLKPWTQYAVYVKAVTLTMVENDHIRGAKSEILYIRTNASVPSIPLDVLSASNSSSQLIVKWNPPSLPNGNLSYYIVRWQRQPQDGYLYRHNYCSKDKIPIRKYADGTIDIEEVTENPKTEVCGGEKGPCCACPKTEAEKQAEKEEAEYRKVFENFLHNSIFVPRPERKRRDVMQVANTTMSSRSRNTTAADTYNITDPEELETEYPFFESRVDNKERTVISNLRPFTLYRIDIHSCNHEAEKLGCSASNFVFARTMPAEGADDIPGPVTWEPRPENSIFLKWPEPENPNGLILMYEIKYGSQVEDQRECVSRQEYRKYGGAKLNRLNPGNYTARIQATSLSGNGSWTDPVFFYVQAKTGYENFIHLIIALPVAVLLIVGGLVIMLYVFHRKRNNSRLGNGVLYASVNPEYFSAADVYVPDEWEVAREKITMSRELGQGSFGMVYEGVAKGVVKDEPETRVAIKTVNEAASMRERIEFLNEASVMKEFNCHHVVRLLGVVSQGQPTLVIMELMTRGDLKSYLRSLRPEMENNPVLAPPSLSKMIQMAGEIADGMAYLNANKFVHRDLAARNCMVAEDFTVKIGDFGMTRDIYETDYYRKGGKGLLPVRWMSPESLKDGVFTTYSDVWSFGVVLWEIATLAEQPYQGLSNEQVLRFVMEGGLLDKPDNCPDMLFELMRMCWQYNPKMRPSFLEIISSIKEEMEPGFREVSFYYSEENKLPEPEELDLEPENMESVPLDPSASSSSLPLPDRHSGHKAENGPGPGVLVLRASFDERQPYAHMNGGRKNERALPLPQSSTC
Another experiment has as its target T6, PYK2 (Homo sapiens, UniProt Q14289).
T6 construct: gene PTK2B
Particulars: competition binding, % of control; read-out: Percent Control (100 uM Levosimendan). A digest of the protocol: as §1

The target in another experiment is T7, PIP5K2C (Homo sapiens, UniProt Q8TBX8).
T7 construct: gene PIP4K2C
T7 sequence (Q8TBX8 whole entry): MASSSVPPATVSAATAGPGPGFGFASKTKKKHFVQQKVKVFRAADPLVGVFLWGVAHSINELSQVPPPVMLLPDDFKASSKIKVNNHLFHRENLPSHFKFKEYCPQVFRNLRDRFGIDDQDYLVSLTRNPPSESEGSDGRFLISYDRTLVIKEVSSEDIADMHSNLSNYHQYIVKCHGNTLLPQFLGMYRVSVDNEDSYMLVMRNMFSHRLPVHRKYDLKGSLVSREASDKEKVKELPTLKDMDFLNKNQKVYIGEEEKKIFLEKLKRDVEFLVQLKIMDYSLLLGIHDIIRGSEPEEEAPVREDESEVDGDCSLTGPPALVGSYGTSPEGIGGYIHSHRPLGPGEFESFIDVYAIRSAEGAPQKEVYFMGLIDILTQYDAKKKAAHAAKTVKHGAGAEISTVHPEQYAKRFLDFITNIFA
To be noted: competition binding, % of control. A digest of the protocol: as §1

[2] abbreviates: read-out: Percent Control (10 uM Levosimendan).
Setting [3] is: read-out: Percent Control (100 uM Levosimendan).

Sequence of PIM2 (Q9P1W9 whole entry): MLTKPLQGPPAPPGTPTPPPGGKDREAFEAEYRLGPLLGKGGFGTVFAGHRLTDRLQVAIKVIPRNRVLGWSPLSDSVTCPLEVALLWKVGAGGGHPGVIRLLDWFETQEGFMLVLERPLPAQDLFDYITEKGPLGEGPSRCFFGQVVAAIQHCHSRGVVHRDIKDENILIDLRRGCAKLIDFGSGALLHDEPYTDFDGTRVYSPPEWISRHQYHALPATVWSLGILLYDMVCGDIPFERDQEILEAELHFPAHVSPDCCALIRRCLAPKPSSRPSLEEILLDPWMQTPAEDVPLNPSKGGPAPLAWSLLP
Sequence of RIOK1 (Q9BRS2 whole entry): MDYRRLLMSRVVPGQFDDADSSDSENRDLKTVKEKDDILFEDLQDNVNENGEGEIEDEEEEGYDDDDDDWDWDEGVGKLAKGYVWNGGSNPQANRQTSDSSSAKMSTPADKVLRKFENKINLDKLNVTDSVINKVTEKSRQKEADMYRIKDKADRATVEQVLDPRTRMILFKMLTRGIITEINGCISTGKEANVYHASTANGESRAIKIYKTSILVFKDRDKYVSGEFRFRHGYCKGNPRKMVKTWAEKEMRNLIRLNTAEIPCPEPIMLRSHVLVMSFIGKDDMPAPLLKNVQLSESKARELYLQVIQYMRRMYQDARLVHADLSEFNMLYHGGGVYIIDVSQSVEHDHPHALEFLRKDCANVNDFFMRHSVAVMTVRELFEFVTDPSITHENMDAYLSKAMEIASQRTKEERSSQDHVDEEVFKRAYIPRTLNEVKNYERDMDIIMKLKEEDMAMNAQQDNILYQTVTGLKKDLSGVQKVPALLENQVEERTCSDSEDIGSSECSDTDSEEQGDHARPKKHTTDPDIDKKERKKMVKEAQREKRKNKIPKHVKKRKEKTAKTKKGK
T3 sequence (O75676 whole entry): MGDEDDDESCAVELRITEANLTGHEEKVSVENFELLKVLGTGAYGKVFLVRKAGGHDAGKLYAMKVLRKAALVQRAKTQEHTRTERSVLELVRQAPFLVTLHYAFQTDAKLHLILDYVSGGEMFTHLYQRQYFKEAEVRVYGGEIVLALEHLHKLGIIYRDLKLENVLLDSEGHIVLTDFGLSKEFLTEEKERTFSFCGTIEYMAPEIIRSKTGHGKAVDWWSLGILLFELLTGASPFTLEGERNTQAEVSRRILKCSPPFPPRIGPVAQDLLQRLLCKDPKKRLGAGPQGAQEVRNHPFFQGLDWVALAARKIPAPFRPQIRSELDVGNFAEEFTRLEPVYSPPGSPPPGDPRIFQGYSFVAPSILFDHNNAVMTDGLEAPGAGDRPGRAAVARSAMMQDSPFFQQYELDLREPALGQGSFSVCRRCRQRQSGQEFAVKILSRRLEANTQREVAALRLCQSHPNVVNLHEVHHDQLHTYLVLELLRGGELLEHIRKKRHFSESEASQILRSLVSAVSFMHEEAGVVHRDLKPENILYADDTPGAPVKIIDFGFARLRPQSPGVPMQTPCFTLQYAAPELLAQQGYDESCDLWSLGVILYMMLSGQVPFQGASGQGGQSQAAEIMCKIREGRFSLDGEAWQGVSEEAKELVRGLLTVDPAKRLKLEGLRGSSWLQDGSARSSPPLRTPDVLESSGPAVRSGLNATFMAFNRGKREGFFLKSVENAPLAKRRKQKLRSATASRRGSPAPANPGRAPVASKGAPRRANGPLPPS
Sequence of FGFR3(G697C) (P22607 whole entry G697C): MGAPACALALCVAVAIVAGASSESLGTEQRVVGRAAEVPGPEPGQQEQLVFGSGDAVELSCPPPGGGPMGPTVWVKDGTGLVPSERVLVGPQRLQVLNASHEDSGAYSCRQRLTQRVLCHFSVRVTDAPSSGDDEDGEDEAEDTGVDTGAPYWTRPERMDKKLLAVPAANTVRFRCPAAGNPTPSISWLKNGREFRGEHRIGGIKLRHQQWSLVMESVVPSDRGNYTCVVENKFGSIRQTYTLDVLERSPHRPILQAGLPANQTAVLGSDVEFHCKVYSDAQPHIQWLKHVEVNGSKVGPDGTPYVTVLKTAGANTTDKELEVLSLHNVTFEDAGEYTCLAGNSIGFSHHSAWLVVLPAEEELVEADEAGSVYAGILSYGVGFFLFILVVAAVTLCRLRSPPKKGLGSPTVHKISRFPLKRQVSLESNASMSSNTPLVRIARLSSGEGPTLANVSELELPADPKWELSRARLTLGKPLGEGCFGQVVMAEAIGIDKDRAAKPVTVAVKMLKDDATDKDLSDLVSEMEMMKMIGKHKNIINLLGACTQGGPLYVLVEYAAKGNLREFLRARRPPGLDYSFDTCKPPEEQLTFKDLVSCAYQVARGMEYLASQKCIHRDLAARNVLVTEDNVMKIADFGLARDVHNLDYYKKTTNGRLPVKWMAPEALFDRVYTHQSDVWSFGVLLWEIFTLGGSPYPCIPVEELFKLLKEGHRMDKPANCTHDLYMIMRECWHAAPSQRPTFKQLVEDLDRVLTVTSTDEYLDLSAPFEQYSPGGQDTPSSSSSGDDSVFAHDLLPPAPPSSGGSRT
Sequence of IRAK1 (P51617 whole entry): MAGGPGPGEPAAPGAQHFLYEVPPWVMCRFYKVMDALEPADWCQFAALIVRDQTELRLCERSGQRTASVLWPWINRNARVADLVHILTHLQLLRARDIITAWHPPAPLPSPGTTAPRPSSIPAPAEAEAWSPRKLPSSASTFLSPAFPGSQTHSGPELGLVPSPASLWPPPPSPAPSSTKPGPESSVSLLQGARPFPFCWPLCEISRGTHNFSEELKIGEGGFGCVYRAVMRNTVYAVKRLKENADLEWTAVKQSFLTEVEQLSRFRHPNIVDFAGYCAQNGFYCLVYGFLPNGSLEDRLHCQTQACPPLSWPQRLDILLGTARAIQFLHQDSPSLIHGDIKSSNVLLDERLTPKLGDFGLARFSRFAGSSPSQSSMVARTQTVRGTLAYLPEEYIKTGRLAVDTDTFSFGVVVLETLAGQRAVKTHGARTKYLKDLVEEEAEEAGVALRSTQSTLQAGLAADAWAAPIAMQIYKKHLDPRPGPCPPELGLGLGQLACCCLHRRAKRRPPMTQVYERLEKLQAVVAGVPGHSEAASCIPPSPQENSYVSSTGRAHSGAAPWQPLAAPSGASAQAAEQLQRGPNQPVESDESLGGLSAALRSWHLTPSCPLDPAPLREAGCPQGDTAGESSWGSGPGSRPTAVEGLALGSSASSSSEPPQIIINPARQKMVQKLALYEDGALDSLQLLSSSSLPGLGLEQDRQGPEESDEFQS

In the case of `C[C@@H]1CC(=O)NN=C1c1ccc(NN=C(C#N)C#N)cc1` [levosimendan], the remaining binding at 100 µM is 90% on MRCKA; 57% on MEK3; 53% in [1]; 100% on MAPKAPK2; 0% on RIOK1 (setting [3]); 100% on OSR1. Moreover, the remaining binding at 100 µM on PKMYT1 was 57%; on EGFR(L747-T751del,Sins), 59%; at FAK it was 89%; on PIM2 (setting [3]) it was 20%; on TAOK2, 89%; at MST1R, 87%. The remaining binding at 100 µM turned out to be 88% on DAPK1; 80% on FGFR3(G697C); 61% on IRAK1; 86% at IGF1R; 93% on PYK2; 5.9% at PIP5K2C (setting [3]). The remaining binding at 10 µM was 15% at RIOK1 (setting [2]), 84% on PIM2 (setting [2]) and 52% on PIP5K2C (setting [2]).
